Experimental data from PMC7329366 (Molecular nutrition & food research, 2020).
Like-named read-outs stand apart in the source and are kept apart here.

Legend:
[1] = Plasma pharmacokinetics after a single oral RK dose, male vs female mice; type: in vivo, C57BL/6J mice
[2] = type: in vivo, C57BL/6J mice; conditions: for Cmax: mean±SEM; for presence in the brain: brain of either sexes after oral RK
[3] = Plasma pharmacokinetics after a single oral RK dose, normal-weight; type: in vivo, C57BL/6J mice; conditions: for AUC(0-t): AUC (0–12 h); for half-life: T1/2 (elimination half-life)
[4] = type: in vivo, C57BL/6J mice; conditions: single oral RK 200 mg kg^−1; for half-life: T1/2 (elimination half-life)
[5] = Distribution in white adipose tissue; type: in vivo, C57BL/6J mice; conditions: epididymal WAT; for time within which considerable accumulation in WAT was observed: male mice, oral RK 200 mg kg^−1; for increase in WAT level in obese animals compared with normal-weight: between 15 and 30 min
[6] = type: in vivo; conditions: in 24 h, normal-weight male mice, preliminary dosing tests
[7] = female, C57BL/6J, mouse, plasma, po, 200 mg/kg
[8] = male, C57BL/6J, mouse, plasma, po, 200 mg/kg
[9] = Br-F: brain, female LFD mice, single oral RK 200 mg kg^−1
[10] = Br-M: brain, male LFD mice, single oral RK 200 mg kg^−1
[11] = female, C57BL/6J, mouse, brain, po, 200 mg/kg
[12] = male, C57BL/6J, mouse, brain, po, 200 mg/kg
[13] = male, C57BL/6J, mouse, plasma, po, 200 mg/kg, Pl-N: plasma, normal-weight male mice, single oral RK 200 mg kg^−1
[14] = male, C57BL/6J, mouse, plasma, po, 200 mg/kg, Pl-O: plasma, obese male mice, single oral RK 200 mg kg^−1
[15] = male, C57BL/6J, mouse, plasma, po, 200 mg/kg, Tmax, Pl-N: plasma, normal-weight male mice, single oral RK 200 mg kg^−1
[16] = Br-N: brain, normal-weight male mice
[17] = male, C57BL/6J, mouse, brain, po, 200 mg/kg, Br-N: brain, normal-weight male mice
[18] = male, C57BL/6J, mouse, brain, po, 200 mg/kg, Tmax, Br-N: brain, normal-weight male mice
[19] = male, C57BL/6J, mouse, brain, po, 200 mg/kg, Br-O: brain, obese male mice
[20] = Pl-F: plasma, female LFD mice, single oral RK 200 mg kg^−1
[21] = Pl-M: plasma, male LFD mice, single oral RK 200 mg kg^−1
[22] = Pl-N: plasma, normal-weight male mice, single oral RK 200 mg kg^−1
[23] = Pl-O: plasma, obese male mice, single oral RK 200 mg kg^−1

| Structure (SMILES) | Cmax [1, 7] | Tmax [1, 7] | AUC(0-t) [1, 8] | Tmax [1, 8] | half-life [1, 8] | Cmax [2, 9] | Cmax [2, 10] | Tmax [2, 11] | half-life [2, 11] | Tmax [2, 12] | half-life [2, 12] | AUC(0-t) [3, 13] | half-life [3, 13] | half-life [3, 14] | Tmax [3, 15] | Cmax [4, 16] | Cmax ([4]; Br-O: brain, obese male mice) | half-life [4, 17] | Tmax [4, 18] | time within which considerable accumulation in WAT was observed [5] | also measured |
| --- | --- | --- | --- | --- | --- | --- | --- | --- | --- | --- | --- | --- | --- | --- | --- | --- | --- | --- | --- | --- | --- |
| OCCc1ccc(O)c(O)c1 [3,4-DHPE, 2-(3,4-dihydroxyphenyl)ethanol] | 0.024 ± 0.002 µM | 15 min | 0.057 ± 0.006 µM·h | 20 min | 41.8 ± 1.25 min | 0.020 ± 0.006 nmol/g | 0.021 ± 0.003 nmol/g | 15 min | 20.3 ± 1.41 min | 15 min | 21 ± 0.16 min | 0.08 ± 0.006 µM·h | 48.9 ± 6.9 min | 51.7 ± 4.36 min | 20 min | 0.031 ± 0.003 nmol/g | 0.025 ± 0.002 nmol/g | 35.5 ± 3.94 min | 20 min | – | half-life [1, 7]: 63.6 ± 6.84 min |
| O=C(O)CCc1cccc(O)c1 [3-(3-hydroxyphenyl)propionic acid] | – | – | – | – | – | – | – | – | – | – | – | – | – | – | – | – | – | – | – | – | presence in the brain [2]: not found |
| OCCc1ccc(O)cc1 [4-HPE, 2-(4-hydroxyphenyl)ethanol] | 43.6 ± 2.9 µM | 40 min | 108 ± 10.9 µM·h | 50 min | 104 ± 2.1 min | 1.28 ± 0.08 nmol/g | 1.03 ± 0.14 nmol/g | 20 min | – | 15 min | 64.7 ± 7.78 min | 20.7 ± 2.92 µM·h | 73 ± 4.7 min | 56.3 ± 8.8 min | 20 min | 6.14 ± 0.49 nmol/g | 7.92 ± 1.60 nmol/g | 31.5 ± 4.38 min | 25 min | ≤ 15 min | AUC(0-t) [1, 7]: 98.7 ± 7.38 µM·h; AUC(0-t) [3, 14]: 28.7 ± 3.65 µM·h; half-life [4, 19]: 38.8 ± 2.56 min |
| CC(=O)C=Cc1ccc(O)c(O)c1 [DHPhLiAce, 3,4-dihydroxybenzylideneacetone] | – | 15 min | 0.465 ± 0.046 µM·h | 40 min | 41.4 ± 2.91 min | 0.112 ± 0.042 nmol/g | 0.067 ± 0.011 nmol/g | 25 min | 35.8 ± 2.29 min | 20 min | 33.4 ± 0.73 min | 1.04 ± 0.16 µM·h | 41.6 ± 3 min | 48 ± 2.1 min | 30 min | 0.23 ± 0.012 nmol/g | – | 36.2 ± 1.6 min | 30 min | ≤ 15 min | half-life [1, 7]: 30 ± 4.24 min; AUC(0-t) [3, 14]: 1.38 ± 0.04 µM·h; half-life [4, 19]: 37.2 ± 0.22 min |
| CC(=O)CCc1ccc(O)cc1 [RK, 4-(4-hydroxyphenyl)-2-butanone] | 281 ± 17.1 µM | 15 min | 358 ± 34 µM·h | 15 min | 78.4 ± 3.55 min | 37.4 ± 8.73 nmol/g | 28.9 ± 2.42 nmol/g | 15 min | 28.3 ± 1.65 min | 15 min | 25.7 ± 2 min | 387 ± 25.6 µM·h | 73.3 ± 1.2 min | 94.7 ± 7.8 min | 15 min | 32.7 ± 4.34 nmol/g | 46.7 ± 6.2 nmol/g | 39.5 ± 1.9 min | 20 min | ≤ 15 min | Tmax ([1]; both, C57BL/6J, mouse, plasma, po, 200 mg/kg): ~15 min; AUC(0-t) [1, 7]: 299 ± 20.2 µM·h; time of absorption and tissue accumulation ([1]; oral RK 200 mg kg^−1, this study): < 30 min; maximal circulating concentration ([3]; plasma, normal-weight mice): 236 nM; maximal circulating concentration ([3]; plasma, obese mice): 318 nM; twelve-hour plasma accumulation in obese animals as % of normal-weight ones ([3]; plasma, obese vs normal-weight): 152.2–197.6%; half-life [4, 19]: 41.5 ± 4 min; increase in WAT level in obese animals compared with normal-weight [5]: 30–90%; higher residual content in WAT of obese mice ([5]; between 30 min and 2 h, obese vs normal-weight): > 100%; clearance from the bloodstream [6]: > 99% |
| COc1ccc(CCC(C)=O)cc1 [RK-Me, 4-(4-methoxy-phenyl)-2-butanone] | 0.086 ± 0.022 µM | 25 min | 0.05 ± 0.005 µM·h | 20 min | 26.7 ± 2.81 min | – | – | – | – | – | – | 0.039 ± 0.008 µM·h | 31 ± 5.6 min | 41.7 ± 1.2 min | 20 min | – | – | – | – | ≤ 15 min | AUC(0-t) [1, 7]: 0.069 ± 0.01 µM·h; half-life [1, 7]: 31.4 ± 1.84 min; presence in the brain [2]: not found; AUC(0-t) [3, 14]: 0.047 ± 0.007 µM·h |
| CC(O)CCc1ccc(O)cc1 (stereo not drawn) [ROH, raspberry alcohol] | – | – | – | – | – | 21.6 ± 4.72 nmol/g | 21.0 ± 2.68 nmol/g | – | – | – | – | – | – | – | – | 55.1 ± 8.12 nmol/g | 60.3 ± 6.6 nmol/g | – | – | ≤ 15 min | AUC (0–12 h) [1, 20]: 158 ± 17.1 nmol/mL/min; Tmax [1, 20]: 25.0 ± 4.99 min; Cmax ([1]; Pl-F: plasma, female LFD mice, single oral RK 200 mg kg^−1, mean±SEM): 130 ± 12.7 µM; AUC (0–12 h) [1, 21]: 177 ± 11.8 nmol/mL/min; T1/2 (elimination half-life) [1, 21]: 63.2 ± 2.61 min; Tmax [1, 21]: 25.0 ± 4.99 min; T1/2 (elimination half-life) [2, 10]: 32.0 ± 0.77 min; Tmax [2, 10]: 20.0 ± 5.0 min; AUC (0–12 h) [3, 22]: 208 ± 22.0 nmol/mL/min; T1/2 (elimination half-life) [3, 22]: 66.1 ± 1.7 min; Tmax [3, 22]: 25.0 ± 5.0 min; T1/2 (elimination half-life) [3, 23]: 70.0 ± 1.5 min; Tmax [3, 23]: 50.0 ± 10.0 min; T1/2 (elimination half-life) [4, 16]: 33.7 ± 2.2 min; Tmax [4, 16]: 20.0 ± 5.0 min; Tmax ([4]; Br-O: brain, obese male mice): 40.0 ± 10.0 min; increase in WAT level in obese animals compared with normal-weight [5]: 30–90% |
| COc1cc(CCC(C)=O)ccc1O [VLAce, vanillylacetone] | 9.94 ± 2.4 µM | 15 min | 31 ± 3.65 µM·h | 25 min | 46.4 ± 2.1 min | 1.49 ± 0.30 nmol/g | 1.51 ± 0.15 nmol/g | – | 89.2 ± 10 min | 15 min | 84.1 ± 3.55 min | 61.2 ± 4.7 µM·h | 40.9 ± 4.8 min | 68.8 ± 17.3 min | 25 min | 2.07 ± 0.24 nmol/g | – | 44.4 ± 2.18 min | 40 min | ≤ 15 min | – |
| CC(=O)C=Cc1ccccc1 [benzylideneacetone] | – | – | – | – | – | – | – | – | – | – | – | – | – | – | – | – | – | – | – | – | presence in the brain [2]: not found |
| COc1cc(/C=C/C(=O)O)ccc1O [ferulic acid] | – | – | – | – | – | – | – | – | – | – | – | – | – | – | – | – | – | – | – | – | presence in the brain [2]: not found |
